# Experimental data from PubChem BioAssay AID330 (DTP/NCI, 2004).
# Where “and” joins values, the source holds several entries; their conditions need not be identical. Equal values may be shown once. Toxic doses and inconclusive results are not listed. Square brackets hold non-standard residues; d marks the D form. Peptide text beside a SMILES is read from it. ξ: configuration not given here. ξN = NC(=O)CC(N)C(=O)O
# Tested on: P388 leukemia ip, CD2F1 mice, survival T/C
# Assay: NCI In Vivo Anticancer Drug Screen. Data for tumor model P388 Leukemia (intraperitoneal) in CD2F1 (CDF1) mice
# Conditions: endpoint: median survival time, higher = longer survival
# Procedure: The antitumor activity of compounds was measured in mice bearing transplantable tumors. Survival or tumor size were measured and the results are expressed as the measurement made in the treated group (T) divided by the measurement made in the vehicle treated control group (C). The tumor model used in this assay is P388 Leukemia (intraperitoneal) in CD2F1 (CDF1) mice
# [1] = dose: 50.0 mg/kg/injection, schedule: Q01DX005 (ip), vehicle: Klucel (hydroxypropylcellulose) (HPC)
# [2] = dose: 100.0 mg/kg/injection, schedule: Q01DX005 (ip), vehicle: Klucel (hydroxypropylcellulose) (HPC)
# [3] = dose: 12.5 mg/kg/injection, schedule: Q01DX005 (ip), vehicle: saline with Tween-80
# [4] = dose: 25.0 mg/kg/injection, schedule: Q01DX005 (ip), vehicle: saline with Tween-80
# [5] = dose: 50.0 mg/kg/injection, schedule: Q01DX009 (ip), vehicle: Klucel (hydroxypropylcellulose) (HPC)
# [6] = dose: 100.0 mg/kg/injection, schedule: Q01DX009 (ip), vehicle: Klucel (hydroxypropylcellulose) (HPC)
# [7] = dose: 200.0 mg/kg/injection, schedule: Q01DX009 (ip), vehicle: Klucel (hydroxypropylcellulose) (HPC)
# [8] = dose: 400.0 mg/kg/injection, schedule: Q01DX009 (ip), vehicle: Klucel (hydroxypropylcellulose) (HPC)
# [9] = dose: 60.0 mg/kg/injection, schedule: Q01DX005 (ip), vehicle: saline with Tween-80
# [10] = dose: 120.0 mg/kg/injection, schedule: Q01DX005 (ip), vehicle: saline with Tween-80
# [11] = dose: 100.0 mg/kg/injection, schedule: Q04DX003 (ip), vehicle: saline
# [12] = dose: 200.0 mg/kg/injection, schedule: Q04DX003 (ip), vehicle: saline
structure (smiles),measurement,setting,value
CC(C)[C@](O)(C(=O)OCC1CCN2CC[C@@H](O)C12)[C@H](C)O (stereo partly specified),T/C,"dose: 40.6 mg/kg/injection, schedule: Q01DX009 (ip), vehicle: saline",96 % of control
same,T/C,"dose: 81.25 mg/kg/injection, schedule: Q01DX009 (ip), vehicle: saline",102 % of control
same,T/C,"dose: 162.5 mg/kg/injection, schedule: Q01DX009 (ip), vehicle: saline",92 % of control and 98 % of control
O=P(c1ccccc1)(c1ccccc1)c1ccccc1OCc1cccc(COc2ccccc2P(=O)(c2ccccc2)c2ccccc2)n1,T/C,[1],99 % of control
same,T/C,[2],91 % of control
same,T/C,"dose: 200.0 mg/kg/injection, schedule: Q01DX005 (ip), vehicle: Klucel (hydroxypropylcellulose) (HPC)",97 % of control
CCCn1cc2c3c(cccc31)C1C=C(C)CN(C)C1C2 (stereo unspecified),T/C,"dose: 6.25 mg/kg/injection, schedule: Q01DX005 (ip), vehicle: saline with Tween-80",100 % of control and 107 % of control
same,T/C,[3],99 % of control and 100 % of control and 116 % of control
same,T/C,[4],98 % of control and 105 % of control and 108 % of control
same,T/C,"dose: 100.0 mg/kg/injection, schedule: Q01DX005 (ip), vehicle: saline with Tween-80",117 % of control
NCC(=O)NC(CC(N)=O)C(=O)O (stereo unspecified) (H-Gly-[ξN]-OH),T/C,"dose: 50.0 mg/kg/injection, schedule: Q01DX009 (ip), vehicle: saline",119 % of control
same,T/C,"dose: 100.0 mg/kg/injection, schedule: Q01DX009 (ip), vehicle: saline",109 % of control
same,T/C,"dose: 200.0 mg/kg/injection, schedule: Q01DX009 (ip), vehicle: saline",114 % of control
COc1ccc(-c2c[s+]cs2)cc1,T/C,"dose: 6.25 mg/kg/injection, schedule: Q01DX009 (ip), vehicle: distilled water + Tween-80",103 % of control
same,T/C,"dose: 12.5 mg/kg/injection, schedule: Q01DX009 (ip), vehicle: distilled water + Tween-80",112 % of control
same,T/C,"dose: 25.0 mg/kg/injection, schedule: Q01DX009 (ip), vehicle: distilled water + Tween-80",100 % of control
same,T/C,"dose: 50.0 mg/kg/injection, schedule: Q01DX009 (ip), vehicle: distilled water + Tween-80",116 % of control
same,T/C,"dose: 100.0 mg/kg/injection, schedule: Q01DX009 (ip), vehicle: distilled water + Tween-80",109 % of control
same,T/C,"dose: 200.0 mg/kg/injection, schedule: Q01DX009 (ip), vehicle: distilled water + Tween-80",93 % of control
COC(=O)C1(c2cc3c(cc2OC)N(C)C2CCCCC32)CCCCCc2c1[nH]c1ccccc21 (stereo unspecified),T/C,"dose: 12.5 mg/kg/injection, schedule: Q01DX001 (ip), vehicle: distilled water + Tween-80",106 % of control
same,T/C,"dose: 25.0 mg/kg/injection, schedule: Q01DX001 (ip), vehicle: distilled water + Tween-80",100 % of control
same,T/C,"dose: 50.0 mg/kg/injection, schedule: Q01DX001 (ip), vehicle: distilled water + Tween-80",104 % of control
same,T/C,"dose: 100.0 mg/kg/injection, schedule: Q01DX001 (ip), vehicle: distilled water + Tween-80",100 % of control
same,T/C,"dose: 200.0 mg/kg/injection, schedule: Q01DX001 (ip), vehicle: distilled water + Tween-80",97 % of control
Cc1cc(N=Cc2cccs2)ccc1Br,T/C,[5],101 % of control and 98 % of control
same,T/C,[6],100 % of control and 101 % of control and 102 % of control
same,T/C,[7],102 % of control and 95 % of control
same,T/C,[8],105 % of control
C(=C\CN(Cc1ccccc1)Cc1ccccc1)/CN(Cc1ccccc1)Cc1ccccc1,T/C,"dose: 50.0 mg/kg/injection, schedule: Q04DX003 (ip), vehicle: Klucel (hydroxypropylcellulose) (HPC)",95 % of control
same,T/C,"dose: 100.0 mg/kg/injection, schedule: Q04DX003 (ip), vehicle: Klucel (hydroxypropylcellulose) (HPC)",90 % of control
same,T/C,"dose: 200.0 mg/kg/injection, schedule: Q04DX003 (ip), vehicle: Klucel (hydroxypropylcellulose) (HPC)",90 % of control
COc1cc(C(=O)N=Nc2c(O)[nH]c3ccc(Br)cc23)cc(OC)c1OC,T/C,"dose: 3.13 mg/kg/injection, schedule: Q01DX009 (ip), vehicle: Klucel (hydroxypropylcellulose) (HPC)",115 % of control
same,T/C,"dose: 6.25 mg/kg/injection, schedule: Q01DX009 (ip), vehicle: Klucel (hydroxypropylcellulose) (HPC)",106 % of control
same,T/C,"dose: 12.5 mg/kg/injection, schedule: Q01DX009 (ip), vehicle: Klucel (hydroxypropylcellulose) (HPC)",105 % of control
same,T/C,[8],86 % of control
COC(=O)c1c(C(=O)OC)c(-c2ccc(Cl)c(Cl)c2)n2c1CCC2,T/C,"dose: 100.0 mg/kg/injection, schedule: Q01DX009 (ip), vehicle: saline with Tween-80",87 % of control
same,T/C,"dose: 200.0 mg/kg/injection, schedule: Q01DX009 (ip), vehicle: saline with Tween-80",89 % of control
same,T/C,"dose: 400.0 mg/kg/injection, schedule: Q01DX009 (ip), vehicle: saline with Tween-80",88 % of control
CC(=O)N[C@@H](Cc1ccc(N(CCCl)CCCl)cc1)C(=O)ON1C(=O)CCC1=O,T/C,"dose: 5.8 mg/kg/injection, schedule: Q01DX009 (ip), vehicle: saline",168 % of control
same,T/C,"dose: 5.8 mg/kg/injection, schedule: Q03HX008 (ip), vehicle: saline",160 % of control
same,T/C,"dose: 11.6 mg/kg/injection, schedule: Q01DX009 (ip), vehicle: saline",190 % of control
same,T/C,"dose: 11.6 mg/kg/injection, schedule: Q03HX008 (ip), vehicle: saline",195 % of control
same,T/C,"dose: 23.2 mg/kg/injection, schedule: Q03HX008 (ip), vehicle: saline",260 % of control
Nc1ccc(S(=O)(=O)Nc2c(N)[nH]c(=S)[nH]c2=O)cc1,T/C,"dose: 15.0 mg/kg/injection, schedule: Q01DX005 (ip), vehicle: Klucel (hydroxypropylcellulose) (HPC)",97 % of control
same,T/C,"dose: 15.0 mg/kg/injection, schedule: Q01DX005 (ip), vehicle: saline with Tween-80",115 % of control
same,T/C,"dose: 30.0 mg/kg/injection, schedule: Q01DX005 (ip), vehicle: Klucel (hydroxypropylcellulose) (HPC)",97 % of control
same,T/C,"dose: 30.0 mg/kg/injection, schedule: Q01DX005 (ip), vehicle: saline with Tween-80",105 % of control
same,T/C,"dose: 60.0 mg/kg/injection, schedule: Q01DX005 (ip), vehicle: Klucel (hydroxypropylcellulose) (HPC)",92 % of control
same,T/C,[9],98 % of control
same,T/C,"dose: 120.0 mg/kg/injection, schedule: Q01DX005 (ip), vehicle: Klucel (hydroxypropylcellulose) (HPC)",100 % of control
same,T/C,[10],100 % of control
Nc1cccnc1C1OCCO1,T/C,"dose: 50.0 mg/kg/injection, schedule: Q01DX009 (ip), vehicle: other",100 % of control
same,T/C,"dose: 100.0 mg/kg/injection, schedule: Q01DX009 (ip), vehicle: other",103 % of control
CN(C)n1c(O)c(N=O)sc1=S,T/C,[1],96 % of control
same,T/C,[2],95 % of control
Cc1cc(N=[N+]=[N-])c2ccc(Cl)cc2n1,T/C,[9],94 % of control
same,T/C,[10],100 % of control
CCN(CC)c1ccc(N=C(NC#N)SC)cc1,T/C,[5],104 % of control
same,T/C,[6],103 % of control
same,T/C,[7],106 % of control
CN(C)c1ccc(C(=C(c2ccc(N(C)C)cc2)c2ccc(N(C)C)cc2)c2ccc(N(C)C)cc2)cc1,T/C,[3],96 % of control
same,T/C,[4],92 % of control
same,T/C,"dose: 50.0 mg/kg/injection, schedule: Q01DX005 (ip), vehicle: saline with Tween-80",89 % of control
O=C(NC(=O)c1ccccc1F)Nc1ccc(C(F)(F)F)cc1,T/C,[5],102 % of control
same,T/C,[6],101 % of control
same,T/C,[7],99 % of control
CCOC(=O)c1ccc(NC(CCN2CCN(CCC(=NC(C)(C)C)Nc3ccc(C(=O)OCC)cc3)CC2)=NC(C)(C)C)cc1,T/C,[5],96 % of control
same,T/C,[6],92 % of control
same,T/C,[7],90 % of control
CC(C)OCCCN(Cn1c(=S)sc2ccccc21)Cn1c(=S)sc2ccccc21,T/C,[5],91 % of control
same,T/C,[6],89 % of control
same,T/C,[7],87 % of control
O=C(c1cccnc1)C(CCc1ccccn1)c1ccccn1 (stereo unspecified),T/C,[11],100 % of control
same,T/C,[12],100 % of control
COc1ccc(C(=O)CCc2c(-c3ccccc3)[nH]c3ccccc23)c(O)c1,T/C,[9],107 % of control
same,T/C,[10],100 % of control
same,T/C,"dose: 240.0 mg/kg/injection, schedule: Q01DX005 (ip), vehicle: saline with Tween-80",97 % of control
O=C1Cc2ccccc2C(=O)N1,T/C,"dose: 100.0 mg/kg/injection, schedule: Q04DX003 (ip), vehicle: saline with Tween-80",100 % of control
same,T/C,"dose: 200.0 mg/kg/injection, schedule: Q04DX003 (ip), vehicle: saline with Tween-80",95 % of control
COC(C)C(Br)C(=O)NN=C(c1ccccc1)c1ccccc1 (stereo unspecified),T/C,[11],95 % of control
same,T/C,[12],93 % of control
same,T/C,"dose: 400.0 mg/kg/injection, schedule: Q04DX003 (ip), vehicle: saline",95 % of control
C[C@]12CCC[C@@H]3C[C@@]31C[C@@H]([C@@]1(C)CO1)CC2,T/C,"dose: 25.0 mg/kg/injection, schedule: Q01DX009 (ip), vehicle: Klucel (hydroxypropylcellulose) (HPC)",98 % of control and 91 % of control
same,T/C,[5],102 % of control and 106 % of control
same,T/C,[6],102 % of control and 104 % of control and 88 % of control
same,T/C,[7],100 % of control and 120 % of control
